Results taken from US8895605B2, “Pyrrolidine-substituted flavones as radio-sensitizers for use in the treatment of cancer” (Piramal Enterprises Limited, priority 2009, dated 2014).
Read-outs that look alike come from different tables or passages of the source.

Test system: FaDu (human head and neck cancer) cells
Assay: In-vitro MTS assay (cytotoxicity, Compound A alone and with radiation)
Format: cell-based
Conditions: for cytotoxicity at 0.7 µM / cytotoxicity at 1 µM / cytotoxicity at 2 µM: FaDu, no radiation; for cytotoxicity at 0.7 µM: 0.7 μM Compound A (IC30) alone; for cytotoxicity at 1 µM: 1 μM Compound A (IC50) alone; for cytotoxicity at 2 µM: 2 μM Compound A (IC70) alone; for Combination index (CI): CompuSyn
Source text: The assay has been carried out according to the method described in Molecular Cancer Therapeutics, 2007, 6(9); the disclosure of which is incorporated by reference for the teaching of the assay. MTS (Promega, Cat #G1111) is a tetrazolium compound ((3-(4,5-dimethylthiazol-2-yl)-5-(3-carboxymethoxyphenyl)-2-(4-sulphophenyl)-2H-tetrazolium, inner salt; MTS) for use in colorimetric assays for determining the number of viable cells in proliferation, cytotoxicity or chemosensitivity assays. This is used with an electron coupling reagent PMS (Phenazine methosulfate). MTS is bioreduced by cells into a formazan that is soluble in tissue culture medium. The absorbance of the formazan at 490 nm can be measured directly from 96 well assay plates without additional processing. Dehydrogenase enzymes found in metabolically active cells accomplish the conversion of MTS into the aqueous soluble formazan. The quantity of formazan product as measured at 490 nm absorbance is directly proportional to the number of living cells in culture. Before testing the effect of Compound A on radiosensitivity of FaDu (human head and neck cancer, ATCC, USA) cells, the dose dependent cytotoxicity of Compound A alone was determined using MTS assay. Tumor cells were incubated in the presence of various concentrations of Compound A for 48 h and subjected to MTS assay. […] The Fa-Du (human head and neck cancer, ATCC, USA) cells were seeded at density of 1500 cells/well in 180 μL of MEM (minimum essential medium) in tissue culture grade 96-well plate and allowed to grow for 24 h in humidified 5% CO2 incubator at 37±1° C. Three identical groups of cells were made. After a time interval of 24 h after seeding, different wells of the first and second group of cells were irradiated at room temperature at dose of 2, 4, 6, 8 and 10 Gy respectively. The second group was further treated 24 h after irradiation (i.e. on the third day of the experiment) with IC30 concentration of Compound A. The third group was treated on the third day of the experiment, with IC30 concentration of Compound A alone. In order to obtain IC30 concentration (0.7 μM) of Compound A in any well, 20 μL of a stock solution of concentration 10×IC30, (i.e. 7 μM) was added to the well (dissolved first in DMSO and then in cell medium, final DMSO concentration should not exceed 0.5%) and diluted to 200 μL with MEM. The wells were incubated for 48 h and 96 h respectively, in humidified 5% CO2 incubator at 37±1° C. After completion of 48 h and 96 h respectively, the medium was removed from all wells and fresh MEM was added and the plates were incubated further for additional 4-6 days or for total of 8-10 days from the start of the experiment. At the end of the experiment, the medium was removed from all wells and 20 μL of MTS (2 mg/ml in phosphate buffer saline, pH 6-6.5 and filter sterilized) and 1 μL of PMS (3 mM in PBS, pH 7.3 and filter sterilized) was added per well along with the cell medium to adjust the total volume to 200 μL/well. The plate was incubated for 2-4 h in humidified 5% CO2 incubator at 37±1° C. The plate was read at 490 nm on Spectrophotometer (SpectraMax, Molecular Devices, USA), and the percentage cytotoxicity using SoftMax, software for SpectraMax was calculated. The above experiment was repeated using IC50 and IC70 concentrations of Compound A. The enhancement in radiation effects in FaDu cell line as evaluated using the CompuSyn software by Chou and Talalay, described in Pharmacological Reviews, 2006, 58, 621-681, which is incorporated herewith by reference. Combination index (CI) is used to evaluate if a combination is additive, synergistic or antagonistic. CI<1 is synergistic, CI=1 is additive and CI>1 is antagonistic. For example, at a treatment of 48 h with a concentration of IC70 of Compound A, the combination was synergistic (CI=0.7) at all the doses of radiation. The combination index in both the cases ie. […]

[1] = Compound A alone, 48 h incubation, FaDu cells
[2] = Homo sapiens, 48 h, read-out: % cytotoxicity 48 h after Compound A treatment
[3] = Homo sapiens, 96 h, read-out: % cytotoxicity 96 h after Compound A treatment

CN1CC[C@@H](c2c(O)cc(O)c3c(=O)cc(-c4ccccc4Cl)oc23)[C@@H]1CO.Cl [Compound A, (+)-trans-2-(2-Chlorophenyl)-5,7-dihydroxy-8-(2-hydroxymethyl-1-methyl-pyrrolidin-3-yl)-chromen-4-one hydrochloride]
% cytotoxicity 48 h after Compound A treatment (2 Gy radiation, then 0.7 μM Compound A (IC30) 24 h after radiation, 48 h): 23%
% cytotoxicity 96 h after Compound A treatment (2 Gy radiation, then 0.7 μM Compound A (IC30) 24 h after radiation, 96 h): 15%
% cytotoxicity 48 h after Compound A treatment (2 Gy radiation, then 1 μM Compound A (IC50) 24 h after radiation, 48 h): 35%
% cytotoxicity 48 h after Compound A treatment (2 Gy radiation, then 2 μM Compound A (IC70) 24 h after radiation, 48 h): 79%
% cytotoxicity 96 h after Compound A treatment (2 Gy radiation, then 2 μM Compound A (IC70) 24 h after radiation, 96 h): 98%
% cytotoxicity 48 h after Compound A treatment (4 Gy radiation, then 0.7 μM Compound A (IC30) 24 h after radiation, 48 h): 35%
% cytotoxicity 96 h after Compound A treatment (4 Gy radiation, then 0.7 μM Compound A (IC30) 24 h after radiation, 96 h): 31%
% cytotoxicity 48 h after Compound A treatment (4 Gy radiation, then 1 μM Compound A (IC50) 24 h after radiation, 48 h): 50%
% cytotoxicity 96 h after Compound A treatment (4 Gy radiation, then 1 μM Compound A (IC50) 24 h after radiation, 96 h): 37%
% cytotoxicity 48 h after Compound A treatment (4 Gy radiation, then 2 μM Compound A (IC70) 24 h after radiation, 48 h): 86%
% cytotoxicity 96 h after Compound A treatment (4 Gy radiation, then 2 μM Compound A (IC70) 24 h after radiation, 96 h): 96%
% cytotoxicity 48 h after Compound A treatment (6 Gy radiation, then 0.7 μM Compound A (IC30) 24 h after radiation, 48 h): 64%
% cytotoxicity 96 h after Compound A treatment (6 Gy radiation, then 0.7 μM Compound A (IC30) 24 h after radiation, 96 h): 60%
% cytotoxicity 48 h after Compound A treatment (6 Gy radiation, then 1 μM Compound A (IC50) 24 h after radiation, 48 h): 73%
% cytotoxicity 96 h after Compound A treatment (6 Gy radiation, then 1 μM Compound A (IC50) 24 h after radiation, 96 h): 77%
% cytotoxicity 48 h after Compound A treatment (6 Gy radiation, then 2 μM Compound A (IC70) 24 h after radiation, 48 h): 89%
% cytotoxicity 96 h after Compound A treatment (6 Gy radiation, then 2 μM Compound A (IC70) 24 h after radiation, 96 h): 96%
% cytotoxicity 48 h after Compound A treatment (8 Gy radiation, then 0.7 μM Compound A (IC30) 24 h after radiation, 48 h): 79%
% cytotoxicity 96 h after Compound A treatment (8 Gy radiation, then 0.7 μM Compound A (IC30) 24 h after radiation, 96 h): 69%
% cytotoxicity 48 h after Compound A treatment (8 Gy radiation, then 1 μM Compound A (IC50) 24 h after radiation, 48 h): 85%
% cytotoxicity 96 h after Compound A treatment (8 Gy radiation, then 1 μM Compound A (IC50) 24 h after radiation, 96 h): 84%
% cytotoxicity 48 h after Compound A treatment (8 Gy radiation, then 2 μM Compound A (IC70) 24 h after radiation, 48 h): 91%
% cytotoxicity 96 h after Compound A treatment (8 Gy radiation, then 2 μM Compound A (IC70) 24 h after radiation, 96 h): 95%
% cytotoxicity 48 h after Compound A treatment (10 Gy radiation, then 0.7 μM Compound A (IC30) 24 h after radiation, 48 h): 80%
% cytotoxicity 96 h after Compound A treatment (10 Gy radiation, then 0.7 μM Compound A (IC30) 24 h after radiation, 96 h): 85%
% cytotoxicity 48 h after Compound A treatment (10 Gy radiation, then 1 μM Compound A (IC50) 24 h after radiation, 48 h): 86%
% cytotoxicity 96 h after Compound A treatment (10 Gy radiation, then 1 μM Compound A (IC50) 24 h after radiation, 96 h): 90%
% cytotoxicity 48 h after Compound A treatment (10 Gy radiation, then 2 μM Compound A (IC70) 24 h after radiation, 48 h): 91%
% cytotoxicity 96 h after Compound A treatment (10 Gy radiation, then 2 μM Compound A (IC70) 24 h after radiation, 96 h): 94%
IC30 [1]: 700 nM
IC70 [1]: 2000 nM
cytotoxicity at 0.7 µM [2]: 8%
cytotoxicity at 0.7 µM [3]: 4%
cytotoxicity at 1 µM [2]: 20%
cytotoxicity at 1 µM [3]: 25%
cytotoxicity at 2 µM [2]: 66%
cytotoxicity at 2 µM [3]: 83%
IC50 (Homo sapiens, Compound A alone, 48 h incubation, FaDu cells): 1000 nM
Enhancement in radiation effects (combination class) (radiation 6, 8 and 10 Gy followed by Compound A at IC30 for 48 h): synergistic (CI<1 is synergistic)
Enhancement in radiation effects (combination class) (radiation 6, 8 and 10 Gy followed by Compound A at IC50 for 48 h): synergistic (CI<1 is synergistic)
Combination index (CI) (radiation + Compound A at IC30, 96 h treatment, all doses of radiation): 1
Combination index (CI) (radiation + Compound A at IC50, 96 h treatment, all doses of radiation): 1
Combination index (CI) (radiation + Compound A at IC70, 48 h treatment, all doses of radiation): 0.7
Combination index (CI) (radiation + Compound A at IC70, 96 h treatment, at 2, 4 and 6 Gy): < 1
